Measurements reported in patent US11180488B2, “Isoxazole o-linked carbamoyl cyclohexyl acids as LPA antagonists” (BRISTOL-MYERS SQUIBB COMPANY, priority 2017, dated 2021).
Where two headings read alike, the source gives them in different places.

Key:
[1] = tested on: IPF patients; conditions: 26-week clinical trial; cited from earlier work
[2] = tested on: human foetal lung fibroblasts; conditions: cited from earlier work
[3] = tested on: UUO mice; conditions: mouse, in vivo; cited from earlier work
[4] = tested on: CTGF; conditions: co-treatment, MCT cells; cited from earlier work
[5] = tested on: pancreatic cancer cell lines; conditions: cited from earlier work
[6] = tested on: highly peritoneal metastatic pancreatic cancer cell line; conditions: cited from earlier work
[7] = biological target: T1, human LPA1 (Homo sapiens, UniProt Q92633); test: LPA1 functional antagonist assay (LPA-induced calcium flux); type: cell-based; conditions: CHO cells overexpressing human LPA1, calcium flux induced by 10 nM LPA
T1 construct: expressed in transfected cells; host or cells: Chinese hamster ovary (CHO) cells
Description: The effectiveness of compounds of the present invention as LPA1 inhibitors can be determined in an LPA1 functional antagonist assay as follows:
Chinese hamster ovary cells overexpressing human LPA1 were plated overnight (15,000 cells/well) in poly-D-lysine coated 384-well microplates (Greiner bio-one, Cat #781946) in DMEM/F12 medium (Gibco, Cat #11039). Following overnight culture, cells were loaded with calcium indicator dye (AAT Bioquest Inc, Cat #34601) for 30 minutes at 37° C. The cells were then equilibrated to room temperature for 30 minutes before the assay. Test compounds solubilized in DMSO were transferred to 384 well non-binding surface plates (Corning, Cat #3575) using the Labcyte Echo acoustic dispense and diluted with assay buffer [1×HBSS with calcium/magnesium (Gibco Cat #14025-092), 20 mM HEPES (Gibco Cat #15630-080) and 0.1% fatty acid free BSA (Sigma Cat #A9205)] to a final concentration of 0.5% DMSO. Diluted compounds were added to the cells by FDSS6000 (Hamamatsu) at final concentrations ranging from 0.08 nM to 5 μM. and were then incubated for 20 min at room temperature at which time LPA (Avanti Polar Lipids Cat #857130C) was added at final concentrations of 10 nM to stimulate the cells. […] IC50 values were determined by fitting data to a 4-parameter logistic equation (GraphPad Prism, San Diego Calif.).

[8] = tested on: nerve-injured mice; conditions: pretreatment; cited from earlier work

T1 sequence (Q92633 whole entry): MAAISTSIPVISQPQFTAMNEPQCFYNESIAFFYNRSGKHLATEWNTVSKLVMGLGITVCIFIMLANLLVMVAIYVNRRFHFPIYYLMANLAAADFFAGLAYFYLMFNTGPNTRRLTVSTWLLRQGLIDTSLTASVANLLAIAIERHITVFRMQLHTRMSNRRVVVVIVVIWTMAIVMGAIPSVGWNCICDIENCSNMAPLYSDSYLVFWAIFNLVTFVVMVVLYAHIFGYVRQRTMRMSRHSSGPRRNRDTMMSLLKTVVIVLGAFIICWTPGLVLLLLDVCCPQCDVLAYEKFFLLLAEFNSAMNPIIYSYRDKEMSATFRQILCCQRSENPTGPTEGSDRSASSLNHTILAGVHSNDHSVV

Row | SMILES | IC50 ([7]; read-out: hLPA1 IC50) | further results
1 | Cc1noc(-c2ccc(-c3ccc(C4(C(=O)O)CC4)cc3)cc2)c1NC(=O)O[C@H](C)c1ccccc1 [BMS-986020] |  | rate of FVC (forced vital capacity) decline [1]: significantly reduce
2 | Cc1noc(-c2ccc(CSCCC(=O)O)cc2)c1NC(=O)OC(C)c1ccccc1Cl (stereo not drawn) [Ki16425] |  | chemotaxis of human foetal lung fibroblasts induced by BAL from IPF patients [2]: blocked; fibroblast chemotactic activity in bronchoalveolar lavage samples of IPF subjects [2]: inhibited; renal fibrosis profile of treated UUO mice [3]: closely resembled the profile of LPA1 (−/−) mice; induction of CTGF expression by LPA [4]: almost completely suppressed; in vitro migration in response to LPA and peritoneal fluid (ascites) [5]: effectively blocked; LPA-induced and ascites-induced invasion activity [6]: blocked
3 | Cc1noc(-c2ccc(O[C@H]3CCC[C@H](C(=O)O)C3)cc2)c1C(C)OC(=O)N(C)CCC(C)C (stereo partly drawn) [Example 50, (1S,3S)-3-(4-(4-(1-((isopentyl(methyl)carbamoyl)oxy)ethyl)-3-methyl-isoxazol-5-yl)phenoxy)cyclohexane-1-carboxylic Acid] | 175 nM | 
4 | Cc1nc(-c2onc(C)c2COC(=O)N[C@H](C)c2ccccc2)ccc1O[C@H]1CCC[C@H](C(=O)O)C1 [Example 59] |  | IC50 ([7]; read-out: LPA1 IC50): 45 nM
5 | Cc1noc(-c2ccc(O[C@H]3CCC[C@H](C(=O)O)C3)cc2)c1COC(=O)N(C)CCC(C)(C)C [Example 30] | 60 nM | 
6 | Cc1noc(-c2ccc(O[C@@H]3CCC[C@@H](C(=O)O)C3)cc2)c1COC(=O)N(C)C(C)C1CCC1 (stereo partly drawn) [Example 69] | 214 nM | 
7 | Cc1onc(-c2ccc(O[C@H]3CCC[C@H](C(=O)O)C3)cc2)c1COC(=O)N(C)C1CCCC1 [Example 53, (1S,3S)-3-(4-(4-(((cyclopentyl(methyl)carbamoyl)oxy)methyl)-5-methylisoxazol-3-yl)phenoxy)cyclohexane-1-carboxylic Acid] | 6 nM | 
8 | Cc1nc(-c2onc(C)c2COC(=O)N(C)CC2CCCC2)ccc1O[C@H]1CCC[C@H](C(=O)O)C1 [Example 21] | 29 nM | 
9 | Cc1noc(-c2ccc(O[C@H]3CCC[C@H](C(=O)O)C3)cn2)c1COC(=O)N[C@H](C)C1CC1 [Example 40] | 1650 nM | 
10 | Cc1noc(-c2ccc(O[C@H]3CCC[C@H](C(=O)O)C3)cc2)c1COC(=O)N(C)C1CCOC1 (stereo partly drawn) [Example 31] | 370 nM | 
11 | C[C@@H](N)[C@H]1CC[C@H](C(=O)Nc2ccncc2)CC1 [Example Y-27632] |  | allodynia and hyperalgesia [8]: completely abolished
12 | COCC(C)N(C)C(=O)OCc1c(C)noc1-c1ccc(O[C@@H]2CCC[C@@H](C(=O)O)C2)cc1 (stereo partly drawn) [Example 67] | 675 nM | 
13 | Cc1noc(-c2ccc(O[C@@H]3CCC[C@@](F)(C(=O)O)C3)cc2)c1COC(=O)N(C)C1CCCC1 (single isomer, unassigned) [Example 4] | 15 nM | 
14 | Cc1noc(-c2cnc(O[C@H]3CCC[C@H](C(=O)O)C3)cn2)c1COC(=O)N(C)C1CCCC1 [Example 55] |  | IC50 ([7]; read-out: LPA1 IC50): 88 nM
15 | Cc1noc(-c2ccc(O[C@@H]3CCC[C@](C)(C(=O)O)C3)cc2)c1COC(=O)N(C)C1CCCC1 (racemic) [Example 7, (±)-Cis-3-(4-(4-(((cyclopentyl(methyl)carbamoyl)oxy)methyl)-3-methylisoxazol-5-yl)phenoxy)-1-methylcyclohexanecarboxylic Acid] | 2180 nM | 
16 | Cc1nc(-c2onc(C)c2COC(=O)N(C)C(C)(C)C)ccc1O[C@H]1CCC[C@H](C(=O)O)C1 [Example 63] |  | IC50 ([7]; read-out: LPA1 IC50): 50 nM
17 | COC(C)CN(C)C(=O)OCc1c(C)noc1-c1ccc(O[C@@H]2CCC[C@@H](C(=O)O)C2)cc1 (stereo partly drawn) [Example 71] | 1630 nM | 
18 | Cc1noc(-c2ccc(O[C@H]3CCC[C@H](C(=O)O)C3)cn2)c1COC(=O)N(C)CC1CCC1 [Example 58] |  | IC50 ([7]; read-out: LPA1 IC50): 8 nM
19 | Cc1noc(-c2ccc(O[C@@H]3CCC[C@@H](C(=O)O)C3)cc2)c1COC(=O)N(C)C(C)C1CC1 (stereo partly drawn) [Example 68] | 48 nM | 
20 | Cc1noc(-c2ccc(OC3CCCC(c4nnn[nH]4)C3)cc2)c1COC(=O)N(C)C1CCCC1 (mixture of isomers) [Example 75, (5-(4-((3-(1H-tetrazol-5-yl)cyclohexyl)oxy)phenyl)-3-methylisoxazol-4-yl) methyl cyclopentyl(methyl)carbamate] | 851 nM | 
21 | Cc1noc(-c2ccc(OC3CCCC(F)(C(=O)O)C3)cc2)c1COC(=O)N(C)C1CCCC1 (single isomer, unassigned) [Example 5] | 133 nM | 
22 | Cc1nc(-c2onc(C)c2COC(=O)N(C)CC2CC2)ccc1O[C@H]1CCC[C@H](C(=O)O)C1 [Example 14] | 14 nM | 
